Assay results reported in the supplement of paper PMC10307832.

What was measured:
Experiment in all cases: relative viability (nuclei count vs DMSO), 5 days (fraction); higher = more cells survive
[1] = compound: C[As](C)SC[C@H](NC(=O)CC[C@H](N)C(=O)O)C(=O)NCC(=O)O [Darinaparsin] + CC(=O)c1c(C)c2cnc(Nc3ccc(N4CCNCC4)cn3)nc2n(C2CCCC2)c1=O [Palbociclib] (partner 0.5 µM)
Method in brief: (§1)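 Five library-drug doses in √10 steps were combined with a fixed anchor-drug dose, or a single drug was given alone, by pin tool to lung cancer cell lines in 1536-well plates the day after seeding. Nuclei were stained and counted after 5 days. Relative viability is the nuclei count in treated wells over that in vehicle wells, taken as the median of duplicate plates.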

[2] = compound: C[As](C)SC[C@H](NC(=O)CC[C@H](N)C(=O)O)C(=O)NCC(=O)O [Darinaparsin] + CC(=O)Nc1cccc(-n2c(=O)n(C3CC3)c(=O)c3c(Nc4ccc(I)cc4F)n(C)c(=O)c(C)c32)c1 [Trametinib] (partner 0.02 µM)
Method in brief: as §1

[3] = compound: C1CC2=C(C1)C=C(C=C2)OC3=NC(=C4C(=N3)N(C=N4)CC5=CC=C(C=C5)C6=CC=CC=C6)N[C@@H](CC7=CC=CC=C7)CO [QS11] + CS(=O)(=O)N1CCN(Cc2cc3nc(-c4cccc5[nH]ncc45)nc(N4CCOCC4)c3s2)CC1 [Pictilisib] (partner 1 µM)
Method in brief: as §1

[4] = compound: C[As](C)SC[C@H](NC(=O)CC[C@H](N)C(=O)O)C(=O)NCC(=O)O [Darinaparsin] + NC(=O)Nc1cc(-c2cccc(F)c2)sc1C(=O)N[C@H]1CCCNC1 [AZD7762] (partner 0.2 µM)
Method in brief: as §1

Cell Line	relative viability ([1]; first compound 0.08 µM)	relative viability ([1]; first compound 0.8 µM)	relative viability ([1]; first compound 2.53 µM)	relative viability ([1]; first compound 8 µM)	relative viability ([2]; first compound 0.08 µM)	relative viability ([2]; first compound 0.8 µM)	relative viability ([2]; first compound 2.53 µM)	relative viability ([2]; first compound 8 µM)	relative viability ([3]; first compound 0.08 µM)	relative viability ([3]; first compound 0.253 µM)	relative viability ([3]; first compound 0.8 µM)	relative viability ([3]; first compound 2.53 µM)	relative viability ([3]; first compound 8 µM)	relative viability ([4]; first compound 0.08 µM)	relative viability ([4]; first compound 0.8 µM)	relative viability ([4]; first compound 2.53 µM)	relative viability ([4]; first compound 8 µM)
LC-2-ad	0.554	0.523	0.383	0.602	0.975	0.903	0.815	1.08	0.506	0.478	0.441	0.534	0.547	1.07	0.859	0.679	1.02
LCLC-103H	0.49	0.427	0.49	0.533	0.69	0.659	0.675	0.765	0.636	0.543	0.591	0.74	0.609	0.813	0.74	0.727	0.777
LK-2	1		0.815	0.989	0.936	0.61	0.847	0.878	0.605	0.698	0.537	0.547	0.602	0.482		0.335	0.581
LOU-NH91	0.576	0.512	0.562	0.641	0.848	0.747	0.851	0.822	0.541	0.484		0.494	0.54	0.808	0.745	0.719	0.775
LU99A	0.425	0.438	0.354	0.451	0.529	0.62	0.545	0.55	0.343	0.317	0.357	0.296	0.307	0.455	0.273	0.328	0.383
LXF-289	0.638	0.611	0.488	0.562	0.768	0.667	0.677	0.697	0.761	0.796	0.673	0.704	0.754	1.15	1.19	0.931	1.14
NCI-H23	0.549	0.52	0.51	0.479	0.402	0.339	0.43	0.409	0.394	0.413	0.405	0.433	0.361	0.226	0.229	0.23	0.247
NCI-H520	0.149	0.208	0.216	0.248	0.883	0.718	0.669	0.697		0.343	0.27	0.321	0.275				
NCI-H522	1.11	1.01	0.957	1.03	0.704	0.888	0.682	0.816						0.764	0.895	0.809	0.883
NCI-H596					0.762	0.748	0.856	0.755	0.382	0.189	0.516	0.404	0.438	1.23	1.13	0.98	1.25
NCI-H661	0.385	0.355	0.442	0.404	0.646	0.618	0.532	0.677	0.424	0.397	0.407	0.376	0.383				
NCI-H1299									0.725	0.791	0.648	0.736	0.567				
NCI-H1563									0.718	0.703	0.68	0.586	0.617				
NCI-H1648		0.242		0.243		0.445		0.408							0.65		0.691
NCI-H1650	0.377	0.321	0.325	0.375	0.915	0.49	0.593	0.636	0.671	0.458	0.584	0.584	0.524				
NCI-H1703									0.281	0.242	0.264	0.253	0.344	0.199	0.186		0.132
NCI-H2009	0.208	0.166	0.225	0.203	0.283	0.246	0.196	0.27	0.726	0.776	0.747	0.711	0.626				
NCI-H2023	0.393	0.333	0.344	0.431	0.728	0.557	0.629	0.579	0.255	0.224	0.291	0.309	0.283				
NCI-H2228	0.805	0.881	0.419	0.998	0.563	0.382	0.462	0.354	0.254	0.507	0.513	0.427	0.319				
NCI-H2342	0.539	0.527	0.493	0.538	0.966	0.843	0.789	0.73						0.642	0.463	0.418	0.498
SK-LU-1	0.381	0.338	0.339	0.347	0.625	0.401	0.382	0.521	0.455	0.679	0.534	0.552	0.531				
SK-MES-1	0.308	0.303	0.298	0.314	0.558	0.521	0.551	0.61	0.379	0.315	0.381	0.306	0.311				
SW 900	0.55		0.59	0.655	0.73		0.813	0.985						0.644		0.549	0.6
SW 1573	0.412	0.353	0.355	0.488	0.589	0.516	0.58	0.744	0.53	0.481	0.425	0.311	0.298				
UMC-11	0.309	0.342	0.295	0.345	0.781	0.643	0.729	0.704	0.748	0.844	0.899	0.901	1.12				
